The source made the active and inactive calls.
Legend:
[1] = target: T1, Histone-lysine N-methyltransferase NSD2 (Homo sapiens, UniProt O96028); format: biochemical
T1 sequence (O96028 whole entry): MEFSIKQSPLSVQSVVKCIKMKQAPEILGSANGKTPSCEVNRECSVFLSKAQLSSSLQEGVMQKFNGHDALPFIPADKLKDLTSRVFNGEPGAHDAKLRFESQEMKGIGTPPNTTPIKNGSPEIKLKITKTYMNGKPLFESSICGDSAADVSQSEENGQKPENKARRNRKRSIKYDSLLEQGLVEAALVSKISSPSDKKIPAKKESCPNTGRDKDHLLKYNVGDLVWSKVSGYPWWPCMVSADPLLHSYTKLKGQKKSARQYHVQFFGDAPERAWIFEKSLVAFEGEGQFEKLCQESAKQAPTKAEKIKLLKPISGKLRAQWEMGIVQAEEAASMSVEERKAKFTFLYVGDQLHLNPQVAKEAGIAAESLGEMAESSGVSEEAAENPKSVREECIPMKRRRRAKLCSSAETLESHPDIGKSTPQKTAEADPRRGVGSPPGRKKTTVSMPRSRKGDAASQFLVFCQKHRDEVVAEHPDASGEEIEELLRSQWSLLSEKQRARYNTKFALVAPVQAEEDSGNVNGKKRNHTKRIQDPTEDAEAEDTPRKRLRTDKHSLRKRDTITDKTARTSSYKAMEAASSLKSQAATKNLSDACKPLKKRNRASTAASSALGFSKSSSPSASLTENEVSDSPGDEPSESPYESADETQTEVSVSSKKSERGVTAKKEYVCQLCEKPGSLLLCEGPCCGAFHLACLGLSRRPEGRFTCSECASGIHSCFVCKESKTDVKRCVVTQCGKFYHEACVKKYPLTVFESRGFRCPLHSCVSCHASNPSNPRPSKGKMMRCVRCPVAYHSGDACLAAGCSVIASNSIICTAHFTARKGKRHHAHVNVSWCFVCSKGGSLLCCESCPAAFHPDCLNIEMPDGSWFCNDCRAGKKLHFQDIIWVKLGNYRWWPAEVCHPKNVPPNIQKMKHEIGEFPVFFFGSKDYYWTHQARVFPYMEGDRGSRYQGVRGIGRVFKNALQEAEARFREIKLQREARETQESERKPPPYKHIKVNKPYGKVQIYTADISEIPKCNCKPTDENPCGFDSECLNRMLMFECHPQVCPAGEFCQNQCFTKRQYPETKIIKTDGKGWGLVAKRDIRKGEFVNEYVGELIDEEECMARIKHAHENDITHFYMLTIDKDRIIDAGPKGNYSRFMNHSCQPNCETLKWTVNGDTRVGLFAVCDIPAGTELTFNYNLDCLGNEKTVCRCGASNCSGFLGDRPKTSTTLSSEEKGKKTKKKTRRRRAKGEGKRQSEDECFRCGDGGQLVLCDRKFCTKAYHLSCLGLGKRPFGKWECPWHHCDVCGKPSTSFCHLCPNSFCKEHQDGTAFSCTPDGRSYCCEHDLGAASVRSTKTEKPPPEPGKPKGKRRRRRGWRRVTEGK

Aminopeptidase N = target: T2, Aminopeptidase N (Plasmodium falciparum FcB1/Columbia, UniProt O96935); assay: malaria alanyl aminopeptidase activity blockers – biochemical, fluorogenic H-Leu-NHMec substrate, 1536-well (AID 1445); parameters: species or system Plasmodium falciparum 3D7, 3D7
T2 sequence (O96935 whole entry): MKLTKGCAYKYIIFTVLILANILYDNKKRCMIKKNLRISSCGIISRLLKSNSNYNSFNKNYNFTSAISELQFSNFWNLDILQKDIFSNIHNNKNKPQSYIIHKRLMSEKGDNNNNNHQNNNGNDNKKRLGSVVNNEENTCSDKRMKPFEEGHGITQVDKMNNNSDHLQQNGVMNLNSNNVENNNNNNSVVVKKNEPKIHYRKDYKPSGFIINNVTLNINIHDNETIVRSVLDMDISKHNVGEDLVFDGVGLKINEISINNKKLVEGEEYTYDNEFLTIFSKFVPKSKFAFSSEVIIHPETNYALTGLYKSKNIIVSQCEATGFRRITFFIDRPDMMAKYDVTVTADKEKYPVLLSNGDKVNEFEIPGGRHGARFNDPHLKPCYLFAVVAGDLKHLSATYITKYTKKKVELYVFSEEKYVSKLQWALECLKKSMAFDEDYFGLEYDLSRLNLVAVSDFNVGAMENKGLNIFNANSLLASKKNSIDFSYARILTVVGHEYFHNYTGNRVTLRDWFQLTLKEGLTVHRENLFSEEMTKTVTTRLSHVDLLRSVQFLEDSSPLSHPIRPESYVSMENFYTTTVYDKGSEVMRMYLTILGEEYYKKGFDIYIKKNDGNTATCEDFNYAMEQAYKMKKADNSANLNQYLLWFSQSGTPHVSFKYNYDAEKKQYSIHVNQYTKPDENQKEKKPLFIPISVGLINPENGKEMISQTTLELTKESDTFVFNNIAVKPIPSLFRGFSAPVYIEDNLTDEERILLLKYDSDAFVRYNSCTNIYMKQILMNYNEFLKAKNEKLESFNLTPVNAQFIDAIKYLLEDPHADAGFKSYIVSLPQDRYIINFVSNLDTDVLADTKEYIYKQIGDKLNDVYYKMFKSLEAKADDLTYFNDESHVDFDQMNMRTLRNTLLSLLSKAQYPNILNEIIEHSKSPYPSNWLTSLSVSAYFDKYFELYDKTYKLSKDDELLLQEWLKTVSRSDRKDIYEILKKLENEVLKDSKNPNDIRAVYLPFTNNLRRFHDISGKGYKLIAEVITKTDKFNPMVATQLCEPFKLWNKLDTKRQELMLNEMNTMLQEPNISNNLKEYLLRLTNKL

Insulin-degrading enzyme = target: T3, Insulin-degrading enzyme (Homo sapiens, UniProt P14735); assay: Dose Response: Fluorescence polarization-based cell-based high throughput dose response assay for inhibitors of insulin-degrading enzyme (IDE). [Related pubchem assays: 434962 (Primary screen (IDE inhibitors in singlicate)), 449730 (Counterscreen (Cytotoxicity in triplicate)), 435028 (Confirmation (IDE inhibitors in triplicate)), 434984 (Summary …; format: functional
T3 sequence (P14735 whole entry): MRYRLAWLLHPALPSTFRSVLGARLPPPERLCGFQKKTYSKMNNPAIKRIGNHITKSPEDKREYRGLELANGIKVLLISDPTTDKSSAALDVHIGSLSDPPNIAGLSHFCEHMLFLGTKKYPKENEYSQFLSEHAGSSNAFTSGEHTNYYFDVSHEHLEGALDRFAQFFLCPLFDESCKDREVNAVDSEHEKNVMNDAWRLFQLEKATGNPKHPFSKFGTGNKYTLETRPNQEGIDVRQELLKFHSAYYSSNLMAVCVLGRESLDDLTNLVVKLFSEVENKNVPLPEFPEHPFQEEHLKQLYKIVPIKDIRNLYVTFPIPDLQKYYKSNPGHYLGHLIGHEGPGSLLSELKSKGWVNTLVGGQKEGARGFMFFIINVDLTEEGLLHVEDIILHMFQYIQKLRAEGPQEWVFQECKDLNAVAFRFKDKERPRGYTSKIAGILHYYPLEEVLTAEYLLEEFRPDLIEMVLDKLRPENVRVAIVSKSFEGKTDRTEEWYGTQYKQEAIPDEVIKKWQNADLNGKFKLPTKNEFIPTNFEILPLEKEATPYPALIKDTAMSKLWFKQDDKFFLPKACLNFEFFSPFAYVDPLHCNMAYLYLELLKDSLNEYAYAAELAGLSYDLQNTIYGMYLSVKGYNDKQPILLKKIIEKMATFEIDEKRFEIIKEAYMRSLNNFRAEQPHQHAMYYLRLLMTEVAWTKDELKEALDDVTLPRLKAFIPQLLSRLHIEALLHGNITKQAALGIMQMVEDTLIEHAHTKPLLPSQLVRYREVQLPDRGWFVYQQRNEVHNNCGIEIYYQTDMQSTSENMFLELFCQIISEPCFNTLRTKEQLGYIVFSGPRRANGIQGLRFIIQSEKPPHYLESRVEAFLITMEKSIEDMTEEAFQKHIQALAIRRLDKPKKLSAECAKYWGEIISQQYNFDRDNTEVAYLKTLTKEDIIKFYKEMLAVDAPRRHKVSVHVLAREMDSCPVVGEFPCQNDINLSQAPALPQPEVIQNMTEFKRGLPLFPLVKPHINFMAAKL

[2] = Counterscreen for IDE inhibitors: Luminescence-based cell-based high throughput dose response assay to identify compounds that are cytotoxic to HEK cells. [Related pubchem assays: 434962 (Primary screen (IDE inhibitors in singlicate)), 449730 (Counterscreen (Cytotoxicity in triplicate)), 435028 (Confirmation (IDE inhibitors in triplicate)) …; format: functional; conditions: HEK293
[3] = target: Transitional endoplasmic reticulum ATPase (Homo sapiens, UniProt P55072, C522A); assay: C522A mutant p97 ATPase inhibitors, dose response, counter-screen for p97 inhibitor project, biochemical, luminescence (AID 1544)
[4] = target: Transitional endoplasmic reticulum ATPase (Homo sapiens, UniProt P55072); assay: p97 ATPase inhibitors, dose response, biochemical (AID 1534)
Kallikrein-7 = Kallikrein-7 (Homo sapiens, UniProt P49862); assay: Fluorescence Intensity-based biochemical primary high throughput dose response assay to identify activators of kallikrein-7 (K7) zymogen.
[5] = T. cruzi growth inhibition in host cells, dose response, cell-based, plate reader, dry powder, set 2 (AID 652275); format: functional
[6] = Trypanosoma cruzi replication inhibitors in host cells – cell-based, plate reader, dry powder samples, dose response (AID 651845); format: functional
[7] = anti-trypanosomal activity in BESM host cells – imaging, CA-I/72 strain, bovine embryo skeletal muscle, dry powder, dose response (AID 651885); format: functional, cell-based
[8] = PAX8-dependent cell viability loss – plate reader, dry powder, dose response (AID 743049); format: functional, cell-based
[9] = OVCAR8 cell viability loss – plate reader, dry powder samples, PAX8 project, dose response (AID 743197); format: functional, cell-based; conditions: OVCAR-8
Paired box protein Pax-8 = Paired box protein Pax-8 (Homo sapiens, UniProt Q06710); assay: PAX8 transcriptional activity inhibition in RMG-I – RMG-I cells, luciferase, cherry-pick, dose response (AID 687027); format: functional, cell-based;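 further: luciferase reporter driven by Pax8 target thyroperoxidase promoter measured by SteadyGlo luminescence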
[10] = OV-90 cell viability loss – plate reader, dry powder, SA8, PAX8 inhibitor project, dose response (AID 743149); format: functional, cell-based
[11] = PAX5 cellular inhibition readout – cell-based, plate reader, dry powder samples, selectivity assay for PAX8 inhibitor project, dose response (AID 743047); format: functional;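 further: HEK293 cells carrying a Pax5 driven CD19 promoter luciferase reporter; potency of inhibitors that lower reporter luminescence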
[12] = COV434 cell viability loss – plate reader, dry powder, SA7, cytotoxicity control for PAX8 inhibitor project, dose response (AID 743145); format: functional, cell-based
[13] = inhibitors acting on PAX2 in cells – cell-based, plate reader, dry powder samples, selectivity assay for PAX8 inhibitor project, dose response (AID 743048); format: functional;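 further: HEK293 cells carrying a WT1 promoter luciferase reporter driven by expressed Pax2; potency is for inhibition of Pax2 driven reporter signal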
[14] = CMV-driven luciferase expression suppression in HEK293 – cell-based, luminescence, dry powder, counter-screen for Pax8 inhibitor project, dose response (AID 743020); format: functional
[15] = general mammalian cell viability loss – activator set, cherry-pick, cytotoxicity control for miR-122 modulator project, dose response (AID 720690); format: functional, cell-based;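 further: HEK293T human cells scored for general mammalian cytotoxicity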
[16] = target: NAD-dependent protein deacylase sirtuin-5, mitochondrial (Homo sapiens, UniProt Q9NXA8); assay: blockers of sirtuin-5 peptide desuccinylation – biochemical, fluorescence imaging, cherry-pick, set 6, dose response (AID 720597)
[17] = blockers of HIV-1 envelope-mediated cell-cell fusion – cherry-pick, dose response (AID 652057); format: functional, cell-based
[18] = viability loss in CEM21 cells – cell-based, CellTiter-Glo luminescence, cherry-picked, cytotoxicity control for viral fusion inhibitor project, dose response (AID 652042); format: functional;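 further: potency for signal decrease meaning cytotoxicity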
[19] = P. falciparum Dd2 growth inhibitors, dose response, SYBR Green, cherry-picked samples (AID 1159567); format: functional, cell-based
[20] = inhibition of Env-driven cell fusion – HIV entry, plate reader, dry powder, dose response (AID 687023); format: functional, cell-based
[21] = toxicity to human hepatoma HepG2 cells – cell-based, cherry-picked samples, cytotoxicity control, dose response (AID 1159577); format: functional
[22] = HIV-1 AD8 envelope cell-cell fusion blockers – cherry-pick, dose response (AID 652062); format: functional, cell-based;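 further: luciferase signal from cell-cell fusion driven by HIV-1 clade B AD8 Env; potency is for inhibitors of fusion seen as a drop in luminescence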

Chain of Transitional endoplasmic reticulum ATPase (Homo sapiens, UniProt P55072, C522A) (P55072 2-806 C522A limits assumed): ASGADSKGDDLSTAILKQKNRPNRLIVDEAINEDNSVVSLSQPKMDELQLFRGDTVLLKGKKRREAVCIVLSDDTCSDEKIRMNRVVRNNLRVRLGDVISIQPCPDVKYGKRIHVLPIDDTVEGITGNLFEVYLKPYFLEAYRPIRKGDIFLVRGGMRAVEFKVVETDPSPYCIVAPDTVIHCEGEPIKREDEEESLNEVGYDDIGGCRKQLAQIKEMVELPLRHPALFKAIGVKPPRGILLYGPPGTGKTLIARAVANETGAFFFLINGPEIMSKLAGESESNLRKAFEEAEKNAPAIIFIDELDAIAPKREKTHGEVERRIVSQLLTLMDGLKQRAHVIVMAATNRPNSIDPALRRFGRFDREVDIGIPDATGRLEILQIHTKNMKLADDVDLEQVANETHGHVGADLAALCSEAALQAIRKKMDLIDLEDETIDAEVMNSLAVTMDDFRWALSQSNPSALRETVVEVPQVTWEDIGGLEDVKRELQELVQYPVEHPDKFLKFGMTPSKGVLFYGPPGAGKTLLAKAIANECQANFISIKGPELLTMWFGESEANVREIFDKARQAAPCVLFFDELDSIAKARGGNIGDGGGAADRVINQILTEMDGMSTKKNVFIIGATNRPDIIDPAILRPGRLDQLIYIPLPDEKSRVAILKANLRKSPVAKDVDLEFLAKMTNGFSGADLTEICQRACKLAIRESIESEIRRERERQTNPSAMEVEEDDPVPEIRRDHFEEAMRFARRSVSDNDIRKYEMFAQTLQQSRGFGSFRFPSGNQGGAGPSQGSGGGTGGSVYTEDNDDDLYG
Chain of Paired box protein Pax-8 (Q06710 whole entry): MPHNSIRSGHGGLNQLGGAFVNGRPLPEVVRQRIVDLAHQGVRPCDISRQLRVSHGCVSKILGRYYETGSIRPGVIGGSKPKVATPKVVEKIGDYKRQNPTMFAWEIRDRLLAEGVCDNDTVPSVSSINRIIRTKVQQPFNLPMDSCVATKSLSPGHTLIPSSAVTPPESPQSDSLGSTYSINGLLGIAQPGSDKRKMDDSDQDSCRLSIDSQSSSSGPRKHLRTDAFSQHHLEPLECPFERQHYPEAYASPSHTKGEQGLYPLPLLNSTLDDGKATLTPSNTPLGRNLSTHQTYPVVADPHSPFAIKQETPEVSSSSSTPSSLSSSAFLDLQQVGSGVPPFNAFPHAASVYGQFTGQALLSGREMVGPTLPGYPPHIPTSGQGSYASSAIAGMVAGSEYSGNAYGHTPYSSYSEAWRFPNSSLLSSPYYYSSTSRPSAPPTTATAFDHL
Chain of Kallikrein-7 (P49862 whole entry): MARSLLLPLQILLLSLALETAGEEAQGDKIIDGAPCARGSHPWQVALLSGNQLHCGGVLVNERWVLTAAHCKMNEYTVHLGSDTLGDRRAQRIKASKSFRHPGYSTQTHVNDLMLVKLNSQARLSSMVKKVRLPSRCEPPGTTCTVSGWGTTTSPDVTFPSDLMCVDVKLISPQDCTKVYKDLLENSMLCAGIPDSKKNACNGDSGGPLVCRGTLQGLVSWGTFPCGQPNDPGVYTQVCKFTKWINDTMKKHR
Chain of Transitional endoplasmic reticulum ATPase (Homo sapiens, UniProt P55072) (P55072 whole entry): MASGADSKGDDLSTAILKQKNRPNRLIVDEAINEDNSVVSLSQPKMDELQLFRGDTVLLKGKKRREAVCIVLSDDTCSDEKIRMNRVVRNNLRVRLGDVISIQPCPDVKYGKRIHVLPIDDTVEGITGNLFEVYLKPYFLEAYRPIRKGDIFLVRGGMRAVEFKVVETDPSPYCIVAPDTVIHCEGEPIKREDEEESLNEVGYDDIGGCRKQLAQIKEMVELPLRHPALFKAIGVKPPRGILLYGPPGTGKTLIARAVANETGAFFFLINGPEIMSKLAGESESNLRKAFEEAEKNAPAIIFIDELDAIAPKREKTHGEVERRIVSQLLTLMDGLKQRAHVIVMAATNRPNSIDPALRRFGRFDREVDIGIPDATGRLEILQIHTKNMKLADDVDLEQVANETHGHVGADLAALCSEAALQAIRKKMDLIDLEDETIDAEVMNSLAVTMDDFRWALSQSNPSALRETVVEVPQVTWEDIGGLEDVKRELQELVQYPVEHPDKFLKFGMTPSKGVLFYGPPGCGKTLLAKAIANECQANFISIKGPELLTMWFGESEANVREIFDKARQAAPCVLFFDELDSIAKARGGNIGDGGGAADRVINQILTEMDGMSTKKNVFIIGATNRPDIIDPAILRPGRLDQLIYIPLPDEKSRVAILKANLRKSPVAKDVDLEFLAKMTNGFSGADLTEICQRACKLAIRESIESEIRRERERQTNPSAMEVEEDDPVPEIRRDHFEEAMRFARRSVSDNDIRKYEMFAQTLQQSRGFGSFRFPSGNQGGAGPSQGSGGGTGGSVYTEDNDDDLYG
Chain of NAD-dependent protein deacylase sirtuin-5, mitochondrial (Q9NXA8 whole entry, the tested form may be a part): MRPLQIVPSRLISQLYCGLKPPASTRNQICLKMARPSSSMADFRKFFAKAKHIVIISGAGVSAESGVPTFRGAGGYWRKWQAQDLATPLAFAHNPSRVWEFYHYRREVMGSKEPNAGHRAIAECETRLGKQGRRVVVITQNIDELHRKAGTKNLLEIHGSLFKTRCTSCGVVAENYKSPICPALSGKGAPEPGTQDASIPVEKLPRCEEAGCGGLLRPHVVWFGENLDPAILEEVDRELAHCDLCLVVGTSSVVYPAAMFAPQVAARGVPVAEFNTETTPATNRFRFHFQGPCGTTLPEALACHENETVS

## N=C1/C(=C\c2coc3ccccc3c2=O)C(=O)N=C2SC(c3ccncc3)=NN12
[1]
  AC50: 18.8 µM (active)
Aminopeptidase N
  IC50: 44 µM (active)
Insulin-degrading enzyme
  IC50: > 18.6 µM (not active)
[2]
  IC50: 30.1 µM (not active)
[3]
  IC50: 9.26 µM (active)
[4]
  IC50: 11.1 µM (not active)
Kallikrein-7
  EC50: > 7.72 µM (active)

## C[C@@H]1CN([C@@H](C)CO)C(=O)c2cccc(NC(=O)c3ccncc3)c2O[C@H]1CN(C)Cc1cccc(Cl)c1
[5]
  AC50: 0.0169 µM (active)
[6]
  AC50: 0.0706 µM (active)
[7]
  IC50: 0.0074 µM (active)

## C[C@H](CO)N1C[C@H](C)[C@@H](CN(C)Cc2ccc(C(F)(F)F)cc2)Oc2ccc(NS(=O)(=O)c3ccc(Cl)cc3)cc2CC1=O
[8]
  AC50: 21.9 µM (active)
[9]
  AC50: > 70 µM (inactive)
Paired box protein Pax-8
  AC50: 11.2 µM (active)
[10]
  AC50: 39 µM (active)
[11]
  AC50: 29.8 µM (active)
[12]
  AC50: 37.7 µM (active)
[13]
  AC50: 28.6 µM (active)
[14]
  AC50: 41.8 µM (active)
[15]
  AC50: 12.9 µM (active)

## CO[C@H]1CN(C)C(=O)c2ccc(NC(=O)C3CC3)cc2OC[C@@H](C)N(C(=O)c2ccccc2F)C[C@H]1C
[16]
  AC50: > 30 µM (inactive)

## CO[C@@H]1CN(C)C(=O)c2ccc(NC(=O)Nc3cccc(F)c3)cc2OC[C@@H](C)N(C(=O)Nc2cccc(F)c2)C[C@H]1C
[17]
  AC50: 3.17 µM (active)
[18]
  AC50: 61.4 µM (active)
[19]
  AC50: 3.07 µM (active)
[20]
  AC50: 8.94 µM (active)
[21]
  AC50: > 42 µM (inactive)
[22]
  AC50: 61 µM (active)

Source: ChEMBL document CHEMBL1201862, “PubChem BioAssay data set” (2004)
